Assay results published in ChEMBL document CHEMBL1201862, “PubChem BioAssay data set” (2004).
Active and inactive are the calls of the source.

Key:
[1] = biological target: Glyceraldehyde-3-phosphate dehydrogenase (Homo sapiens, UniProt P04406)
[2] = Luminescence Cell-Based Dose Confirmation HTS to Identify Inhibitors of Platelet Dense Granule Release. [Related pubchem assays: 1663 (Primary HTS), 1678 (Summary of Project)]; type: functional
[3] = biological target: Luciferin 4-monooxygenase (Photinus pyralis, UniProt P08659); assay: firefly luciferase enzyme inhibitors, dose response, biochemical, luminescence (AID 1891)
Sequence of Luciferin 4-monooxygenase (P08659 whole entry): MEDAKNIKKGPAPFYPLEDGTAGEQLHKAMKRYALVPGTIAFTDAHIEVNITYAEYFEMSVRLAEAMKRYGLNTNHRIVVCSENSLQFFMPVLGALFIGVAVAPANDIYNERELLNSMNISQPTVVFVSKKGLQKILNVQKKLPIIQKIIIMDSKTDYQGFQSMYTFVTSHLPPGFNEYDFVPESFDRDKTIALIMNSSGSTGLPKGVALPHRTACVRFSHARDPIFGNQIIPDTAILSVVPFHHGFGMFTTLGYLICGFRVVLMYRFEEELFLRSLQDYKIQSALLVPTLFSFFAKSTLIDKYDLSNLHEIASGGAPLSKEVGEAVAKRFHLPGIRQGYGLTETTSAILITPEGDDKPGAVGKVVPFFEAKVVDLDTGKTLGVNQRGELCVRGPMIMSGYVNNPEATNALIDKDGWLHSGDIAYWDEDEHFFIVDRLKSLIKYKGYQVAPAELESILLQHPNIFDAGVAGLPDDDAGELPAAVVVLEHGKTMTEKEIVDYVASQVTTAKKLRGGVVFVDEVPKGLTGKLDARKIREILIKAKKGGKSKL

Large T antigen = Large T antigen (Simian virus 40, UniProt P03070); type: functional, Betapolyomavirus macacae;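 note: Confirmatory-stage PubChem screen for compounds that inhibit SV40 T antigen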
Sequence of Large T antigen (P03070 whole entry): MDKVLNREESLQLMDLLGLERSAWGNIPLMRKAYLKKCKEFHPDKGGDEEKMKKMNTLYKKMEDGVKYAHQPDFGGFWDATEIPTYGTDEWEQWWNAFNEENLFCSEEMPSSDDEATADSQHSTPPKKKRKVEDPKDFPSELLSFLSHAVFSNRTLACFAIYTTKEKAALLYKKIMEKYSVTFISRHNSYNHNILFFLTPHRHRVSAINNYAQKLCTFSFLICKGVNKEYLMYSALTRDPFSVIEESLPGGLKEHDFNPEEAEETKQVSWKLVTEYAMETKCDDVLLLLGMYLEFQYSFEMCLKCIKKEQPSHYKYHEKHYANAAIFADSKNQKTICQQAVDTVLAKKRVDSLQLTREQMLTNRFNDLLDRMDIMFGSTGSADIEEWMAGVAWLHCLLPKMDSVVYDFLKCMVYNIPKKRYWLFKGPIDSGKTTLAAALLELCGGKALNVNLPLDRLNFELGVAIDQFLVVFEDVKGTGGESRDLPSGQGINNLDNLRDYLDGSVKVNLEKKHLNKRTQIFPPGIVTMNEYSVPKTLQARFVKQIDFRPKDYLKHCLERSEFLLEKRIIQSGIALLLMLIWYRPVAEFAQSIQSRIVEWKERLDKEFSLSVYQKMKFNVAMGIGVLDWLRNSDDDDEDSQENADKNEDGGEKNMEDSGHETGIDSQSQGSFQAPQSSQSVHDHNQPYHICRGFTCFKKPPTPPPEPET

Cytochrome P450 2C9 = Cytochrome P450 2C9 (Homo sapiens, UniProt P11712)
Sequence of Cytochrome P450 2C9 (P11712 whole entry): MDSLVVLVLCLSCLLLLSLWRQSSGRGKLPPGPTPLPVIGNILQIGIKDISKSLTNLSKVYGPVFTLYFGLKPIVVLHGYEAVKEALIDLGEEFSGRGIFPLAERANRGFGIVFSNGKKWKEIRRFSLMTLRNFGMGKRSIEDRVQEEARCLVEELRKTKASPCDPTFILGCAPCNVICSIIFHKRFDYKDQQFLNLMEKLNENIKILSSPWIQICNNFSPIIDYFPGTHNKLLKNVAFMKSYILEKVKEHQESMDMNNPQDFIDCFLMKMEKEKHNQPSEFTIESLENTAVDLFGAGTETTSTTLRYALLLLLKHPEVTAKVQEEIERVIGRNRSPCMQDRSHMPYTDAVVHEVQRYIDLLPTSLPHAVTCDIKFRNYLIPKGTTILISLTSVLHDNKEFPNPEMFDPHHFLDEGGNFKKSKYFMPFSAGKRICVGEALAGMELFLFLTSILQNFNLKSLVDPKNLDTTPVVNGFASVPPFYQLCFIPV

Cytochrome P450 1A2 = biological target: T1, Cytochrome P450 1A2 (Homo sapiens, UniProt P05177);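 note: PubChem cytochrome P450 panel assay, CYP1A2 panel member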
T1 sequence (P05177 whole entry): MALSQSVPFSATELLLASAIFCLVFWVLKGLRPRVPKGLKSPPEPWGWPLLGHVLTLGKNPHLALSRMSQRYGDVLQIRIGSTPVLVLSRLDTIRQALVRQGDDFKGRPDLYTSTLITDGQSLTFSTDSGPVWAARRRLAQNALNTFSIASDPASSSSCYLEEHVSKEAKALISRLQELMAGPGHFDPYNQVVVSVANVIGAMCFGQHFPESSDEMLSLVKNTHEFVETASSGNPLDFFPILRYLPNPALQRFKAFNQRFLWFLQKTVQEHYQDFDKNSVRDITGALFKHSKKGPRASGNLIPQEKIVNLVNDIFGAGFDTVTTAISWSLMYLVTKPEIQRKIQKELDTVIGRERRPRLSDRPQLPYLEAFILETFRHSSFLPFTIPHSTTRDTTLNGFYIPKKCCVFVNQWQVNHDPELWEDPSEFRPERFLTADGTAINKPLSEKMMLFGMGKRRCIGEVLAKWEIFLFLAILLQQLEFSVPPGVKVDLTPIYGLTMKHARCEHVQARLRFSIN

[4] = biological target: T2, Short transient receptor potential channel 4 (Mus musculus, UniProt Q9QUQ5); assay: mouse TRPC4 channel activators, dose response, cell-based, HEK293 TRPC4/mu-opioid, Fluo-4 calcium (AID 434937); type: functional
T2 sequence (Q9QUQ5 whole entry): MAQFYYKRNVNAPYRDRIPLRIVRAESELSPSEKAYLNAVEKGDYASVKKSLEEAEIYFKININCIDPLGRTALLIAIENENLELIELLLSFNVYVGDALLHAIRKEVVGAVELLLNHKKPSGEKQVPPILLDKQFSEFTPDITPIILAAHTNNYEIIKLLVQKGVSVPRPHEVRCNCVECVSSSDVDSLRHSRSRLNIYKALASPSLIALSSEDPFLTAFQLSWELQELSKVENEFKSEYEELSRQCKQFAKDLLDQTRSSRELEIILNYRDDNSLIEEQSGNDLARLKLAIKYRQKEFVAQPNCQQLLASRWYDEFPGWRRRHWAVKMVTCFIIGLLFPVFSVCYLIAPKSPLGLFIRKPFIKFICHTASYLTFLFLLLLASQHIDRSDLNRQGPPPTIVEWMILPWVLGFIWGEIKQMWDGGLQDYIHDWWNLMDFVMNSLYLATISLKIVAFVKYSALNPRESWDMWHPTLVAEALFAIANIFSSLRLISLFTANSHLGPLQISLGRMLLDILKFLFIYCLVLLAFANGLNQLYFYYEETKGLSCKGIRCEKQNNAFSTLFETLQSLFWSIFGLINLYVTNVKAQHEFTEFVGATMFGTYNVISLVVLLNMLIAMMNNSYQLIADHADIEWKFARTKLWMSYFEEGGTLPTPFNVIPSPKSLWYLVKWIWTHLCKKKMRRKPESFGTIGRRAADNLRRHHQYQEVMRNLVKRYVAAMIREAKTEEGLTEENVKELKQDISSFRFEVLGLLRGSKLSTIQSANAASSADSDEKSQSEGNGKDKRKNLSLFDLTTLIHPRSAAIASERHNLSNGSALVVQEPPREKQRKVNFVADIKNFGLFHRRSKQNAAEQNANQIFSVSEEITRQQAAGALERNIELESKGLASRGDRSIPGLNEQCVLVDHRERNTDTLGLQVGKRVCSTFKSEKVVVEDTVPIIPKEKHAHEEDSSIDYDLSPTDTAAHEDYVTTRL

[5] = inhibitors of SNCA 5'UTR-driven reporter translation, confirmation, H4 neuroglioma cells, luminescence (AID 1988); type: functional, cell-based
[6] = biological target: T3, Microphthalmia-associated transcription factor (Homo sapiens, UniProt O75030); assay: TRPM1 promoter luciferase signal decrease, dose response, MITF inhibitor project, cell-based, SK-MEL-5, cherry-picked, set 3 (AID 493073); type: functional
T3 sequence (O75030 whole entry): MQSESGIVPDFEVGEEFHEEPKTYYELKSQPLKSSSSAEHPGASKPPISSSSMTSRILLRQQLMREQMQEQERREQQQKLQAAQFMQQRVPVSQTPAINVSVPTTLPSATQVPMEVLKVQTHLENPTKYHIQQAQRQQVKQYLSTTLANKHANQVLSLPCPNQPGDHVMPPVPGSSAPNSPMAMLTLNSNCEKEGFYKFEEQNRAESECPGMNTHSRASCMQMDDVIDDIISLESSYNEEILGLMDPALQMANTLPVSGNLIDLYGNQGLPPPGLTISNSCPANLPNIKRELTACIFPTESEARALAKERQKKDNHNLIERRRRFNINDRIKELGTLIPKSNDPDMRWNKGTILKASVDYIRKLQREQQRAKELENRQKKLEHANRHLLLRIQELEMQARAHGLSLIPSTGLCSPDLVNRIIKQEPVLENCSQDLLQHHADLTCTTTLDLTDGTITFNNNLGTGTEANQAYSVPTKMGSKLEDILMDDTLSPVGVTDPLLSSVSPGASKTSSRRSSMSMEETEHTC

[7] = Luminescence Cell-Based Dose Response HTS to Identify Inhibitors of 5'UTR Stem-Loop Driven Prion Protein mRNA Translation in H4 Neuroglioblastoma Cells. [Related pubchem assays: 1827 (Project Summary), 1813 (Primary HTS)]; type: functional
[8] = inhibitors of firefly luciferase expression or activity, dose response, H4 neuroglioma cells, luminescence (AID 1990); type: functional, cell-based
Cytochrome P450 3A4 = Cytochrome P450 3A4 (Homo sapiens, UniProt P08684);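 note: CYP3A4 tested as one member of a cytochrome P450 panel screen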
Sequence of Cytochrome P450 3A4 (P08684 whole entry): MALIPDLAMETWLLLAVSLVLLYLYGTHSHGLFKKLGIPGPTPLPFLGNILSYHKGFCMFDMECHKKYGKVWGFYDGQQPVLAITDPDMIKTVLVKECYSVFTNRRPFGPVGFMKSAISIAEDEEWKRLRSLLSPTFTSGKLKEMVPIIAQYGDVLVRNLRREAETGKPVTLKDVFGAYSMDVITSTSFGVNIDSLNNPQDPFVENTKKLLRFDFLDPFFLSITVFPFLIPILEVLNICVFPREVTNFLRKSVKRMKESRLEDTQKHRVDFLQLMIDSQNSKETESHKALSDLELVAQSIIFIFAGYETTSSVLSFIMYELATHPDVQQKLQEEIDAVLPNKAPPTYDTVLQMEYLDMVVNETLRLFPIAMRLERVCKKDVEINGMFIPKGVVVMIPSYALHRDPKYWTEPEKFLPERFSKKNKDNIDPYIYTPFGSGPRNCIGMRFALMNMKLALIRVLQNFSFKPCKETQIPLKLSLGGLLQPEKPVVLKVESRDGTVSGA

BJ [9] = assay: cytotoxicity toward BJ-TERT-LT-ST fibroblasts, dose response, cell-based, RAS-independent, luminescence (AID 1935); type: functional; conditions: Homo sapiens;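 note: BJ fibroblasts immortalized with TERT plus LT and ST oncogenes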
BJ [10] = assay: cells; type: functional, cell-based; conditions: Homo sapiens
[11] = cytotoxicity toward DRD oncogenic fibroblasts, dose response, cell-based, non-viral oncogenic, luminescence (AID 1934); type: functional; conditions: Homo sapiens
BJ [12] = assay: cytotoxicity toward BJ-TERT fibroblasts, dose response, cell-based, RAS-independent, luminescence (AID 1933); type: functional; conditions: Homo sapiens
[13] = C. albicans growth with fluconazole, confirmation, fluorescence, retest (AID 2467); type: functional, cell-based
[14] = growth suppression of beta-catenin-knockout colon cells, dose response, cell-based, HCT116, human colon tumor (AID 1045); type: functional;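 note: HCT116 colon tumor cells with beta catenin knocked out; cells exposed to compound for 60 hours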
INS1 = assay: beta cell apoptosis inhibitors, cytokine rescue, dose response, luminescence, retest (AID 449756); type: functional, cell-based; conditions: Rattus norvegicus;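 note: cell death triggered by IL-1 beta plus TNF-alpha plus IFN-gamma mixture; protective hits raise ATP signal compared with cytokine alone wells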
[15] = growth suppression of PTEN-null colon cells, dose response, cell-based, HCT116 PTEN knockout (AID 1047); type: functional;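 note: HCT116 colon tumor cells with PTEN knocked out; cells exposed to compound for 60 hours before readout; potency for loss of cell viability measured by luminescence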
[16] = NIH-3T3 fibroblast cytotoxicity, dose response, cytotoxicity control, cell-based, fluorescence, Alamar Blue, secondary assay (AID 2327); type: functional;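 note: NIH-3T3 mouse fibroblasts cultured with fluconazole at 8 µg/mL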
[17] = biological target: T4, Rac GTPase-activating protein 1 (Homo sapiens, UniProt Q9H0H5); assay: MgcRacGAP GTPase-activating activity inhibitors, confirmation, biochemical, ADP Hunter fluorescence, primary and confirmatory (AID 624330); type: functional
T4 sequence (Q9H0H5 whole entry): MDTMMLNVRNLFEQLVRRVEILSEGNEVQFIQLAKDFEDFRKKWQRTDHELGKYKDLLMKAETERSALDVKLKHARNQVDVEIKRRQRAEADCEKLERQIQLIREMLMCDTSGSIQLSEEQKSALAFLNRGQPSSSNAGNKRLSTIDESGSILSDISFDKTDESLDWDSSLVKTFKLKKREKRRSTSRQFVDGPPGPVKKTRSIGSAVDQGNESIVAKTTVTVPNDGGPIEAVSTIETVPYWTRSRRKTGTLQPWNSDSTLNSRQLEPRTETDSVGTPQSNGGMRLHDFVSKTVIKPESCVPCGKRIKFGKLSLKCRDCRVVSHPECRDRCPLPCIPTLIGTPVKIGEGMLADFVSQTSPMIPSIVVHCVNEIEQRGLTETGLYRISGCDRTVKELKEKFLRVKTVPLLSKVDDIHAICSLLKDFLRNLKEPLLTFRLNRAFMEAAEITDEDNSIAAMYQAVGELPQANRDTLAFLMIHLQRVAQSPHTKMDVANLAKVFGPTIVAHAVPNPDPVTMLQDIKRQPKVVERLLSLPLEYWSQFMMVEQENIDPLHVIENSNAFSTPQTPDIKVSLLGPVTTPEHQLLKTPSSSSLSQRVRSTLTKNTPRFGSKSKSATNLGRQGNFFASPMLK

Sequence of Glyceraldehyde-3-phosphate dehydrogenase (P04406 whole entry): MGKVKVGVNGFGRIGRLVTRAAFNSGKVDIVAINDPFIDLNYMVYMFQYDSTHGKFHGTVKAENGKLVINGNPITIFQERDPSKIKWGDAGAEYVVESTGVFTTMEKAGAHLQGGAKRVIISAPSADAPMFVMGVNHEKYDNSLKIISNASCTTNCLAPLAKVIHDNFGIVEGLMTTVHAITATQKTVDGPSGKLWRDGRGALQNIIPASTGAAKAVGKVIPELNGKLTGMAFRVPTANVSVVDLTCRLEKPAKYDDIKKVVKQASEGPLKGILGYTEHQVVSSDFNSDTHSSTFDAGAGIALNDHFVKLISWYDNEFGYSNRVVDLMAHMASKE

Q: Which IC50 [1] does the source give for `COc1cccc(N2C(=O)C(Cl)=C(N3CCN(Cc4ccc5c(c4)OCO5)CC3)C2=O)c1` here?
A: > 50 µM (inconclusive)

Q: Which results are given for `O=C(CN(CCN1CCOCC1)C(=O)Cn1nnc(-c2ccc(F)cc2)n1)NC1CCCCC1`?
A: EC50 [2]: > 112 µM (not active); EC50 [3]: > 112 µM (not active)

Q: What does the source list for `CN1CCc2c(sc3nc(SCC(=O)N4CCCCC4)n(-c4ccccc4)c(=O)c23)C1`?
A: EC50 [2]: 12.9 µM (active); EC50 [3]: > 112 µM (not active)

Q: For `CN(C)c1ccc(NC(=O)C(=O)C2C(=O)Nc3ccccc32)cc1` (stereo unspecified), which IC50 (Large T antigen) is on record?
A: 25.9 µM (active)

Q: With `COc1cc(OC)c(C2CC(=O)N3CN(c4ccc(C)cc4)CSC3=C2C#N)cc1OC` (stereo unspecified) as the molecule, how does the IC50 (Large T antigen) read?
A: 43.4 µM (active)

Q: With `COc1ccccc1CN1CC[C@@]2(CCCN(C(=O)c3c(C)noc3C)C2)C1` as the molecule, how does the AC50 (Cytochrome P450 2C9) read?
A: inconclusive

Q: With `Cc1csc(NC(=O)CCNS(=O)(=O)c2ccc3c(c2)c(=O)n(C)c(=O)n3C)n1` as the molecule, how does the AC50 (Cytochrome P450 1A2) read?
A: 0.00631 µM (inconclusive)

Q: What about the AC50 (Cytochrome P450 2C9) of the same molecule?
A: inconclusive

Q: With `Cc1ccc(NC(=O)NCC(c2ccccc2)N(C)C)cc1` (stereo unspecified) as the molecule, how does the EC50 [4] read?
A: 0.004 µM (active)

Q: For `C=CCSc1nc(C)cc(/C=C\c2ccccc2)c1C#N`, which AC50 (Cytochrome P450 2C9) is on record?
A: inconclusive

Q: Which EC50 [2] does the source give for `COc1ccc(OCC(=O)Nc2ccc3c(c2)nc(CN2CCCC2)n3C)cc1` here?
A: > 112 µM (not active)

Q: What about the EC50 [3] of the same molecule?
A: > 112 µM (not active)

Q: With `O=C(Nc1ccc(S(=O)(=O)N2CCCCCC2)cc1)c1n[nH]cc1[N+](=O)[O-]` as the molecule, how does the EC50 [5] read?
A: 8.3 µM (active)

Q: And the AC50 [6]?
A: 4.02 µM (active)

Q: What about the EC50 [7] of the same molecule?
A: 53.1 µM (active)

Q: And the EC50 [8]?
A: 6.09 µM (active)

Q: What does the source list for `O=C(CCCCCn1nnc2ccccc2c1=O)N[C@H](C(=O)O)c1ccccc1`?
A: EC50 [2]: > 112 µM (not active); EC50 [3]: > 112 µM (not active)

Q: Which results are given for `COc1cc(/C=C/C(=O)N2CCN(CC(O)COc3ccccc3)CC2)cc(OC)c1OC.Cl` (stereo unspecified)?
A: AC50 (Cytochrome P450 3A4): 10 µM (inconclusive); AC50 (Cytochrome P450 2C9): inconclusive

Q: Which EC50 [4] does the source give for `O=C(NCCc1ccccn1)c1ccc(COc2ccccc2)o1` here?
A: 4.73 µM (active)

Q: With `O=C(Nc1cccc(F)c1)N1CC2(CCN(C(=O)c3cc(C(F)(F)F)cc(C(F)(F)F)c3)CC2)C1` as the molecule, how does the AC50 (Cytochrome P450 3A4) read?
A: 39.8 µM (inconclusive)

Q: What about the AC50 (Cytochrome P450 2C9) of the same molecule?
A: inconclusive

Q: Which EC50 [2] does the source give for `O=C(COC(=O)CCC(=O)c1ccc(F)cc1)Nc1cccc(S(=O)(=O)N2CCCC2)c1` here?
A: 15.5 µM (active)

Q: What about the EC50 [3] of the same molecule?
A: > 112 µM (not active)

Q: With `COc1ccc(C(=O)c2ccc(N3CCOCC3)c([N+](=O)[O-])c2)cc1` as the molecule, how does the EC50 (BJ [9]) read?
A: > 150 µM (not active)

Q: And the EC50 (BJ [10])?
A: > 150 µM (not active)

Q: And the EC50 [11]?
A: > 150 µM (not active)

Q: And the EC50 (BJ [12])?
A: > 150 µM (not active)

Q: Which results are given for `COc1cc(C(=O)Nc2nc(C)c(Cc3ccc4c(c3)OCO4)s2)cc(OC)c1OC`?
A: EC50 (BJ [9]): 1.68 µM (active); EC50 (BJ [10]): 133 µM (active); EC50 [11]: 2.04 µM (active); EC50 (BJ [12]): 2.49 µM (active)

Q: Which results are given for `COc1cccc(C(=O)Oc2c(CN3CCOCC3)cc(Cl)c3cccnc23)c1`?
A: EC50 [13]: 1.83 µM (active); EC50 [14]: 2.48 µM (active); AC50 (INS1): 4.85 µM (active); AC50 [6]: 9.9 µM (active); EC50 [15]: 3.38 µM (active); EC50 [16]: > 75 µM (inactive)

Q: With `C=CCn1c(CCNC(=O)C(C)(C)C)nc2ccccc21` as the molecule, how does the EC50 [4] read?
A: 3.76 µM (active)

Q: For `COc1cc(/C=N/N=C(\N)c2nonc2N)ccc1O`, which EC50 [2] is on record?
A: 7.47 µM (active)

Q: What about the IC50 (Large T antigen) of the same molecule?
A: 12.2 µM (active)

Q: What about the IC50 [17] of the same molecule?
A: 18.9 µM (active)

Q: What about the EC50 [3] of the same molecule?
A: 52.8 µM (active)
